Experimental data taken from patent US20060251597A1, “ANTI-ODOR COMPOSITIONS AND THERAPEUTIC USE” (priority 2005, published 2006).
Structures can show the parent of a compound that is named as a salt. *1 amine or outer side, *2 acyl side, *3 side chain or, on linkers, in order; H or OH if unused. Where a SMILES comes first, the peptide text is derived from it. [ ]: non-standard residue; d: D form. γGlu = O=C(O)[C@H](CCC(=O)[*:2])N[*:1]

Columns and labels:
[1] = anti-odor test, panel by sniffing: thiol or similar malodor compound in anhydrous composition
Protocol: In the same manner, the degree of reducing the presence or preventing the production of malodor generated by a thiol or similar malodor compounds in an anhydrous composition containing a solvent or ingredient of the present embodiments was judged by three-member panel through olfactory sensor by sniffing as (a) no difference from control, (b) slight malodor, (c) trace malodor, and (d) no malodor. In an initial test, a solvent or liquid ingredient of the present embodiments at 4.5 ml was added to a test tube, and a thiol or similar malodor compounds 0.5 g was added to make 10% thiol or similar malodor compounds in the solution. The control solution was prepared by dissolving a thiol or similar malodor compounds 0.5 g in water 4.5 ml to make 10% aqueous solution. The above test solutions including the control solutions were judged by the panel for the anti-odor effect and the degree of reducing the presence or preventing the production of malodor was recorded in the same way as (a) no effect (no difference from control), (b) slight malodor (50% effective), (c) trace malodor (90% effective), and (d) no malodor (completely effective).

[2] = anti-odor test, panel by sniffing: N-acetyl-L-cysteine dissolved in a single solvent or liquid ingredient (anhydrous composition); conditions: for anti-odor effect: 10% N-acetyl-L-cysteine and 90% solvent or liquid ingredient
Protocol: An anti-odor test was carried out in an anhydrous solvent according to the following example. In a series of test tubes, 4.5 ml of a solvent was added to a test tube such that each test tube comprised a single solvent. The solvents added to the test tubes included water, ethanol, acetone, n-propanol, isopropyl alcohol, propylene glycol, butylenes glycol, benzyl alcohol, ethoxydiglycol, 2-ethyl-1,3-hexanediol. N-Acetyl-L-cysteine (MW 163) 0.5 g was then added and dissolved in each solvent. The test tubes were warmed slightly to enhance dissolution of N-acetyl-L-cysteine crystals. Each test tube contained 10% N-acetyl-L-cysteine and 90% solvent.
An anti-odor test was carried out in an anhydrous composition according to the following example. In a series of test tubes, 4.5 ml of a liquid ingredient was added to a test tube such that each test tube comprised a single liquid ingredient. The liquid ingredients added to a test tube included ethyl glycolate, ethyl-L-lactate, diethyl tartrate, triethyl citrate, tripropyl citrate, ethyl-DL-mandelate, benzyl N-acetyl-prolinate, ethyl N-acetyl-prolinate, propyl N-acetyl-prolinate. N-Acetyl-L-cysteine (MW 163) 0.5 g was then added and dissolved in each liquid ingredient. The test tubes were warmed slightly to enhance dissolution of N-acetyl-L-cysteine crystals. Each test tube contained 10% N-acetyl-L-cysteine and 90% liquid ingredient. The panel judged the anti-odor effect in each test tube.

[3] = panel sniff tests of solvents, ingredients and amines against thiol malodor (general statements); conditions: solvent or ingredient, based on the panel tests
Protocol: Initially, a malodor compound such as about 5% by weight was prepared in water solution or in oil-in-water emulsion. A sulfone or organic amine of the present embodiments was added at various concentrations for example, ranging from about 2%, 1%, 0.5% and 0.1% to the formulations containing the malodor substance. The composition containing the malodor substance without a sulfone or organic amine was used as the control.

[4] = 10% malodor compound in anhydrous solution of isopropyl alcohol 50 parts, diethyl tartarate 25 parts, triethyl citrate 25 parts v/v
[5] = 2% malodor compound in anhydrous solution of isopropyl alcohol 50 parts, diethyl tartarate 25 parts, triethyl citrate 25 parts v/v

CCOC(=O)CNC(=O)[C@H](CS)NC(=O)CC[C@H](N)C(=O)OCC [L-Glutathione diethyl ester]
malodor as judged by panel [1, 4]: did not have any malodor

CCOC(=O)[C@H](CSC(C)=O)NC(C)=O [N,S-Diacetyl-L-cysteine ethyl ester]
malodor as judged by panel [1, 4]: did not have any malodor

COC(=O)[C@H](CSC(C)=O)NC(C)=O [N,S-Diacetyl-L-cysteine methyl ester]
malodor as judged by panel [1, 4]: did not have any malodor

CCOC(=O)CNC(=O)[C@H](CS)NC(=O)CC[C@H](NC(C)=O)C(=O)OCC [N-Acetyl-L-glutathione diethyl ester]
malodor as judged by panel [1, 4]: did not have any malodor | malodor as judged by panel ([1]; 10% malodor compound in diethyl tartarate, anhydrous): did not have any malodor

CC(=O)N[C@@H](CCC(=O)N[C@@H](CS)C(=O)NCC(=O)O)C(=O)O [N-Acetyl-L-glutathione] (Ac-[γGlu]-Cys-Gly-OH)
malodor as judged by panel [1, 5]: did not have any malodor

CCC(=O)N[C@@H](CS)C(=O)O [N-Propanoyl-L-cysteine]
malodor as judged by panel [1, 5]: did not have any malodor

OCCCCO [butylene glycol]
suppression of the malodor, judged by panel ([2]; 10% N-acetyl-L-cysteine and 90% solvent): did not suppress the malodor | prevention of malodor produced by a thiol or similar malodor compounds [3]: effectively prevent malodor

CCOC(=O)C(O)C(O)C(=O)OCC (stereo not drawn) [diethyl tartrate]
anti-odor effect [2]: 100% | prevention of malodor produced by a thiol or similar malodor compounds [3]: effectively prevent malodor

CCOCCOCCO [ethoxydiglycol]
anti-odor effect [2]: 100% | prevention of malodor produced by a thiol or similar malodor compounds [3]: effectively prevent malodor

CCOC(=O)[C@@H]1CCCN1C(C)=O [ethyl N-acetyl-prolinate]
anti-odor effect [2]: 100% | prevention of malodor produced by a thiol or similar malodor compounds [3]: effectively prevent malodor

CCOC(=O)CO [ethyl glycolate]
anti-odor effect [2]: 100% | prevention of malodor produced by a thiol or similar malodor compounds [3]: effectively prevent malodor

CC(C)O [isopropyl alcohol]
anti-odor effect [2]: 100% | prevention of malodor produced by a thiol or similar malodor compounds [3]: effectively prevent malodor

CCCO [n-propanol]
anti-odor effect [2]: 100% | prevention of malodor produced by a thiol or similar malodor compounds [3]: effectively prevent malodor

CCCOC(=O)[C@@H]1CCCN1C(C)=O [propyl N-acetyl-prolinate]
anti-odor effect [2]: 100% | prevention of malodor produced by a thiol or similar malodor compounds [3]: effectively prevent malodor

CCOC(=O)CC(O)(CC(=O)OCC)C(=O)OCC [triethyl citrate]
anti-odor effect [2]: 100% | prevention of malodor produced by a thiol or similar malodor compounds [3]: effectively prevent malodor

CCCOC(=O)CC(O)(CC(=O)OCCC)C(=O)OCCC [tripropyl citrate]
anti-odor effect [2]: 100% | prevention of malodor produced by a thiol or similar malodor compounds [3]: effectively prevent malodor
